# pIC50: −log10 of the molar value.
# Tested on: 596521-263-R-J1-PDC complex spheroid growth
# Assay: Anticancer human tumor 596521-263-R-J1-PDC patient-derived soft tissue sarcoma cell line growth inhibition [Asc]
# Details: for pIC50: curve of first compound; for viability, T/C: stronger effect = lower value
# Method in brief: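 Tumor cells were grown as complex spheroids with human endothelial cells (HUVEC) and human mesenchymal stem cells as stroma. Agents were tested alone and in combination, in half-log steps down from the clinical Cmax, or from 10 microM where Cmax was unknown.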
# [1] = second compound 0.00949 µM, first compound 0.0316 µM
# [2] = second compound 0.00949 µM, first compound 0.1 µM
# [3] = second compound 0.00949 µM, first compound 0.316 µM
# [4] = second compound 0.00949 µM, first compound 1 µM
# [5] = second compound 0.00949 µM, first compound 3.16 µM
# [6] = second compound 0.00949 µM, first compound 10 µM
# [7] = second compound 0.03 µM, first compound 0.0316 µM
# [8] = second compound 0.03 µM, first compound 0.1 µM
# [9] = second compound 0.03 µM, first compound 0.316 µM
# [10] = second compound 0.03 µM, first compound 1 µM
# [11] = second compound 0.03 µM, first compound 3.16 µM
# [12] = second compound 0.03 µM, first compound 10 µM
# [13] = second compound 0.0949 µM, first compound 0.0316 µM
# [14] = second compound 0.0949 µM, first compound 0.1 µM
# [15] = second compound 0.0949 µM, first compound 0.316 µM
# [16] = second compound 0.0949 µM, first compound 1 µM
# [17] = second compound 0.0949 µM, first compound 3.16 µM
# [18] = second compound 0.0949 µM, first compound 10 µM
# [19] = second compound 0.3 µM, first compound 0.0316 µM
# [20] = second compound 0.3 µM, first compound 0.1 µM
# [21] = second compound 0.3 µM, first compound 0.316 µM
# [22] = second compound 0.3 µM, first compound 1 µM
# [23] = second compound 0.3 µM, first compound 3.16 µM
# [24] = second compound 0.3 µM, first compound 10 µM
# [25] = second compound 0.949 µM, first compound 0.0316 µM
# [26] = second compound 0.949 µM, first compound 0.1 µM
# [27] = second compound 0.949 µM, first compound 0.316 µM
# [28] = second compound 0.949 µM, first compound 1 µM
# [29] = second compound 0.949 µM, first compound 3.16 µM
# [30] = second compound 0.949 µM, first compound 10 µM
# [31] = second compound 3 µM, first compound 0.0316 µM
# [32] = second compound 3 µM, first compound 0.1 µM
# [33] = second compound 3 µM, first compound 0.316 µM
# [34] = second compound 3 µM, first compound 1 µM
# [35] = second compound 3 µM, first compound 3.16 µM
# [36] = second compound 3 µM, first compound 10 µM
# 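Note: spheroids exposed to compounds for 7 days.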
smiles,measurement,setting,value
C#Cc1c(F)ccc2cc(O)cc(-c3ncc4c(N5CC6CCC(C5)N6)nc(OCC56CCCN5CC(F)C6)nc4c3F)c12 (stereo not drawn) + CCN1C(C(=O)NC23CCC(C(=O)O)(CC2)CC3)C(c2cccc(Cl)c2F)C2(C(=O)Nc3cc(Cl)ccc32)C12CCCCC2,pIC50,second compound 0.00949 µM,< 5.00
same,pIC50,second compound 0.03 µM,< 5.00
same,pIC50,second compound 0.0949 µM,< 5.00
same,pIC50,second compound 0.3 µM,< 5.00
same,pIC50,second compound 0.949 µM,< 5.00
same,pIC50,second compound 3 µM,< 5.00
same,"viability, T/C",[1],90.9%
same,"viability, T/C",[2],88.8%
same,"viability, T/C",[3],93.7%
same,"viability, T/C",[4],93.1%
same,"viability, T/C",[5],100%
same,"viability, T/C",[6],87.7%
same,"viability, T/C",[7],111%
same,"viability, T/C",[8],101%
same,"viability, T/C",[9],85.8%
same,"viability, T/C",[10],96.2%
same,"viability, T/C",[11],107%
same,"viability, T/C",[12],80%
same,"viability, T/C",[13],99.3%
same,"viability, T/C",[14],84.3%
same,"viability, T/C",[15],96.9%
same,"viability, T/C",[16],92%
same,"viability, T/C",[17],102%
same,"viability, T/C",[18],84.8%
same,"viability, T/C",[19],103%
same,"viability, T/C",[20],98.9%
same,"viability, T/C",[21],97.8%
same,"viability, T/C",[22],100%
same,"viability, T/C",[23],119%
same,"viability, T/C",[24],85.7%
same,"viability, T/C",[25],92.4%
same,"viability, T/C",[26],108%
same,"viability, T/C",[27],103%
same,"viability, T/C",[28],98.7%
same,"viability, T/C",[29],87%
same,"viability, T/C",[30],80.3%
same,"viability, T/C",[31],81.3%
same,"viability, T/C",[32],85.7%
same,"viability, T/C",[33],85.1%
same,"viability, T/C",[34],88.8%
same,"viability, T/C",[35],88.2%
same,"viability, T/C",[36],78.9%
C=C(F)C(=O)N1CCN(c2nc(OCC3CCCN3C)nc3c2CCN(c2cccc4cccc(Cl)c24)C3)CC1CC#N (stereo not drawn) + CCN1C(C(=O)NC23CCC(C(=O)O)(CC2)CC3)C(c2cccc(Cl)c2F)C2(C(=O)Nc3cc(Cl)ccc32)C12CCCCC2,pIC50,second compound 0.00949 µM,5.28
same,pIC50,second compound 0.03 µM,5.29
same,pIC50,second compound 0.0949 µM,5.29
same,pIC50,second compound 0.3 µM,5.29
same,pIC50,second compound 0.949 µM,5.33
same,pIC50,second compound 3 µM,5.34
same,"viability, T/C",[1],106%
same,"viability, T/C",[2],102%
same,"viability, T/C",[3],91.2%
same,"viability, T/C",[4],104%
same,"viability, T/C",[5],88.7%
same,"viability, T/C",[6],0.73%
same,"viability, T/C",[7],101%
same,"viability, T/C",[8],90.4%
same,"viability, T/C",[9],97.5%
same,"viability, T/C",[10],97.3%
same,"viability, T/C",[11],85.3%
same,"viability, T/C",[12],0.62%
same,"viability, T/C",[13],94.3%
same,"viability, T/C",[14],96.4%
same,"viability, T/C",[15],106%
same,"viability, T/C",[16],101%
same,"viability, T/C",[17],86.1%
same,"viability, T/C",[18],1.83%
same,"viability, T/C",[19],98.7%
same,"viability, T/C",[20],107%
same,"viability, T/C",[21],101%
same,"viability, T/C",[22],100%
same,"viability, T/C",[23],83.6%
same,"viability, T/C",[24],2.96%
same,"viability, T/C",[25],109%
same,"viability, T/C",[26],97.9%
same,"viability, T/C",[27],108%
same,"viability, T/C",[28],105%
same,"viability, T/C",[29],75.3%
same,"viability, T/C",[30],2.73%
same,"viability, T/C",[31],97%
same,"viability, T/C",[32],98.6%
same,"viability, T/C",[33],102%
same,"viability, T/C",[34],80.2%
same,"viability, T/C",[35],75.5%
same,"viability, T/C",[36],2.66%
C=CC(=O)N1CCN(c2nc(=O)n(-c3c(C)ccnc3C(C)C)c3nc(-c4c(O)cccc4F)c(F)cc23)C(C)C1 (stereo not drawn) + CCN1C(C(=O)NC23CCC(C(=O)O)(CC2)CC3)C(c2cccc(Cl)c2F)C2(C(=O)Nc3cc(Cl)ccc32)C12CCCCC2,pIC50,second compound 0.00949 µM,< 5.00
same,pIC50,second compound 0.03 µM,< 5.00
same,pIC50,second compound 0.0949 µM,< 5.00
same,pIC50,second compound 0.3 µM,< 5.00
same,pIC50,second compound 0.949 µM,< 5.00
same,pIC50,second compound 3 µM,< 5.00
same,"viability, T/C",[1],102%
same,"viability, T/C",[2],101%
same,"viability, T/C",[3],123%
same,"viability, T/C",[4],114%
same,"viability, T/C",[5],113%
same,"viability, T/C",[6],70.7%
same,"viability, T/C",[7],108%
same,"viability, T/C",[8],99.6%
same,"viability, T/C",[9],94.5%
same,"viability, T/C",[10],125%
same,"viability, T/C",[11],114%
same,"viability, T/C",[12],67.7%
same,"viability, T/C",[13],118%
same,"viability, T/C",[14],111%
same,"viability, T/C",[15],113%
same,"viability, T/C",[16],108%
same,"viability, T/C",[17],103%
same,"viability, T/C",[18],86.1%
same,"viability, T/C",[19],108%
same,"viability, T/C",[20],99.2%
same,"viability, T/C",[21],106%
same,"viability, T/C",[22],117%
same,"viability, T/C",[23],112%
same,"viability, T/C",[24],73.7%
same,"viability, T/C",[25],103%
same,"viability, T/C",[26],101%
same,"viability, T/C",[27],96.2%
same,"viability, T/C",[28],113%
same,"viability, T/C",[29],111%
same,"viability, T/C",[30],80.9%
same,"viability, T/C",[31],86.8%
same,"viability, T/C",[32],81.9%
same,"viability, T/C",[33],91.6%
same,"viability, T/C",[34],98.2%
same,"viability, T/C",[35],89.4%
same,"viability, T/C",[36],70.3%
CNC(C)C(=O)NC1CN(S(=O)(=O)c2cccc(S(=O)(=O)N3CCC4CCC(C(=O)NC(c5ccccc5)c5ccccc5)N4C(=O)C(NC(=O)C(C)NC)C3)c2)CCC2CCC(C(=O)NC(c3ccccc3)c3ccccc3)N2C1=O (stereo not drawn) + CCN1C(C(=O)NC23CCC(C(=O)O)(CC2)CC3)C(c2cccc(Cl)c2F)C2(C(=O)Nc3cc(Cl)ccc32)C12CCCCC2,pIC50,second compound 0.00949 µM,< 6.00
same,pIC50,second compound 0.03 µM,< 6.00
same,pIC50,second compound 0.0949 µM,< 6.00
same,pIC50,second compound 0.3 µM,< 6.00
same,pIC50,second compound 0.949 µM,< 6.00
same,pIC50,second compound 3 µM,< 6.00
same,"viability, T/C","second compound 0.00949 µM, first compound 0.00316 µM",92.4%
same,"viability, T/C","second compound 0.00949 µM, first compound 0.01 µM",87.3%
same,"viability, T/C",[1],111%
same,"viability, T/C",[2],96%
same,"viability, T/C",[3],87%
same,"viability, T/C",[4],86.3%
same,"viability, T/C","second compound 0.03 µM, first compound 0.00316 µM",96.4%
same,"viability, T/C","second compound 0.03 µM, first compound 0.01 µM",86.5%
same,"viability, T/C",[7],88.5%
same,"viability, T/C",[8],87.7%
same,"viability, T/C",[9],87.5%
same,"viability, T/C",[10],73.1%
same,"viability, T/C","second compound 0.0949 µM, first compound 0.00316 µM",102%
same,"viability, T/C","second compound 0.0949 µM, first compound 0.01 µM",105%
same,"viability, T/C",[13],85.2%
same,"viability, T/C",[14],94.7%
same,"viability, T/C",[15],91.4%
same,"viability, T/C",[16],89.8%
same,"viability, T/C","second compound 0.3 µM, first compound 0.00316 µM",104%
same,"viability, T/C","second compound 0.3 µM, first compound 0.01 µM",104%
same,"viability, T/C",[19],98.4%
same,"viability, T/C",[20],91.5%
same,"viability, T/C",[21],94.2%
same,"viability, T/C",[22],70.3%
same,"viability, T/C","second compound 0.949 µM, first compound 0.00316 µM",99%
same,"viability, T/C","second compound 0.949 µM, first compound 0.01 µM",90.2%
same,"viability, T/C",[25],98.8%
same,"viability, T/C",[26],80.3%
same,"viability, T/C",[27],78.8%
same,"viability, T/C",[28],84.4%
same,"viability, T/C","second compound 3 µM, first compound 0.00316 µM",78.2%
same,"viability, T/C","second compound 3 µM, first compound 0.01 µM",87.8%
same,"viability, T/C",[31],82.8%
same,"viability, T/C",[32],73.5%
same,"viability, T/C",[33],69.3%
same,"viability, T/C",[34],65.4%

# Reference: PubChem BioAssay AID1963449 (Molecular Pharmacology Branch, DTP, NCI, 2024)
